Measurements as given in patent US20190151312A1, “HEPARAN SULFATE BIOSYNTHESIS INHIBITORS FOR THE TREATMENT OF DISEASES” (BioMarin Pharmaceutical Inc., priority 2014, published 2019).
Like-named read-outs stand apart in the source and are kept apart here.

Test system: GM01896 cells (MPS II dermal fibroblasts)
Test: Assay 1: MPS cellular assay, MPS II (heparan sulfate disaccharide biomarkers by LC-MS)
Format: cell-based, human
Conditions: Assay 1 for MPS II, heparan sulfate disaccharide biomarkers (I2a4, I2a6, I2S0 and/or I2S6), read-out: IC50 Range
Outline: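 Heparan sulfate disaccharide biomarkers quantified by LC-MS after heparinase I/II/III digestion and isotopic aniline labelling, using GM01896 MPS II fibroblasts exposed to compound (at or below 30 μM, 4-21 days). Values given as IC50 by curve fitting; cell viability checked with alamar blue or ATP.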

Compound | IC50 (Homo sapiens, Fibroblast) [nM] | IC50 [nM]
Cc1nn(CCN2CCCC2)c2cc(-c3cc(Nc4ccc(Cl)cc4)nc(N4CCOCC4)n3)ccc12 [(4-chlorophenyl){6-[3-methyl-1-(2-pyrrolidinylethyl)(1H-indazol-6-yl)]-2-morpholin-4-ylpyrimidin-4-yl}amine] | 1000 to 5000 | –
Cc1nn(C)c2cc(-c3cc(Nc4ccc(-c5ccc[nH]5)cc4)nc(N4CCOCC4)n3)ccc12 [[6-(1,3-dimethyl(1H-indazol-6-yl))-2-morpholin-4-ylpyrimidin-4-yl](4-pyrrol-2-ylphenyl)amine] | < 500 | –
Cn1cccc1-c1ccc(Nc2cc(-c3ccc4c(CCN5CCOCC5)nn(C)c4c3)nc(N3CCOCC3)n2)cc1 [{6-[1-methyl-3-(2-morpholin-4-ylethyl)(1H-indazol-6-yl)]-2-morpholin-4-ylpyrimidin-4-yl}[4-(1-methylpyrrol-2-yl)phenyl]amine] | < 500 | –
CNC(=O)c1ccc(Nc2cc(-c3ccc4ncn(CCCN(C)C)c4c3)nc(N3CCOCC3)n2)cc1 [{4-[(6-{1-[3-(dimethylamino)propyl]benzimidazol-6-yl}-2-morpholin-4-ylpyrimidin-4-yl)amino]phenyl}-N-methylcarboxamide] | 1000 to 5000 | –
Cn1ncc2ccc(-c3cc(Nc4ccc5ncoc5c4)nc(N4CCOCC4)n3)cc21 [benzoxazol-6-yl[6-(1-methyl(1H-indazol-6-yl))-2-morpholin-4-ylpyrimidin-4-yl]amine] | 1000 to 5000 | –
Cn1ncc2ccc(-c3cc(Nc4ccc(-c5ccc[nH]5)cc4)nc(N4CCOCC4)n3)cc21 [[6-(1-methyl(1H-indazol-6-yl))-2-morpholin-4-ylpyrimidin-4-yl](4-pyrrol-2-ylphenyl)amine] | 1000 to 5000 | –
Cc1nn(C)c2cc(-c3cc(Nc4ccc5cn[nH]c5c4)nc(N4CCOCC4)n3)ccc12 [1H-indazol-6-yl[6-(1,3-dimethyl(1H-indazol-6-yl))-2-morpholin-4-ylpyrimidin-4-yl]amine] | 1000 to 5000 | –
Cn1ccc2cc(Nc3cc(-c4ccc5cnn(C)c5c4)nc(N4CCOCC4)n3)ccc21 [[6-(1-methyl(1H-indazol-6-yl))-2-morpholin-4-ylpyrimidin-4-yl](1-methylindol-5-yl)amine] | 1000 to 5000 | –
CN1CCN(CCCn2ncc3ccc(-c4cc(Nc5ccc(Cl)cc5)nc(N5CCOCC5)n4)cc32)CC1 [(4-chlorophenyl)(6-{1-[3-(4-methylpiperazinyl)propyl](1H-indazol-6-yl)}-2-morpholin-4-ylpyrimidin-4-yl)amine] | 500 to 1000 | –
Clc1ccc(Nc2cc(-c3ccc4ncn(CCN5CCCC5)c4c3)nc(N3CCOCC3)n2)cc1 [(4-chlorophenyl){2-morpholin-4-yl-6-[1-(2-pyrrolidinylethyl)benzimidazol-6-yl]pyrimidin-4-yl}amine] | 500 to 1000 | –
CN(C)CCNc1nn(C)c2cc(-c3cc(Nc4ccc(Cl)cc4)nc(N4CCOCC4)n3)ccc12 [{2-[(6-{6-[(4-chlorophenyl)amino]-2-morpholin-4-ylpyrimidin-4-yl}-1-methyl(1H-indazol-3-yl))amino]ethyl}dimethylamine] | 500 to 1000 | –
Cn1ncc2ccc(-c3cc(Nc4ccc(C(=O)NC5CC5)cc4)nc(N4CCOCC4)n3)cc21 [N-cyclopropyl(4-{[6-(1-methyl(1H-indazol-6-yl))-2-morpholin-4-ylpyrimidin-4-yl]amino}phenyl)carboxamide] | 1000 to 5000 | –
CNC(=O)c1ccc(Nc2cc(-c3ccc4ncn(CCN(C)C)c4c3)nc(N3CCOCC3)n2)cc1 [{4-[(6-{1-[2-(dimethylamino)ethyl]benzimidazol-6-yl}-2-morpholin-4-ylpyrimidin-4-yl)amino]phenyl}-N-methylcarboxamide] | < 500 | –
Cc1nc2cc(-c3cc(Nc4ccc(Cl)cc4)nc(N4CCOCC4)n3)ccc2n1CCN1CCCC1 [(4-chlorophenyl){6-[2-methyl-1-(2-pyrrolidinylethyl)benzimidazol-5-yl]-2-morpholin-4-ylpyrimidin-4-yl}amine] | 500 to 1000 | –
CC(C)NC(=O)c1ccc(Nc2cc(-c3ccc4cnn(C)c4c3)nc(N3CCOCC3)n2)cc1 [(4-{[6-(1-methyl(1H-indazol-6-yl))-2-morpholin-4-ylpyrimidin-4-yl]amino}phenyl)-N-(methylethyl)carboxamide] | 500 to 1000 | –
CNC(=O)c1ccc(Nc2cc(-c3ccc4ncn(C)c4c3)nc(N3CCOCC3)n2)cn1 [N-methyl(5-{[6-(1-methylbenzimidazol-6-yl)-2-morpholin-4-ylpyrimidin-4-yl]amino}(2-pyridyl))carboxamide] | 500 to 1000 | –
Cn1ncc2ccc(-c3cc(Nc4ccc(-n5cccn5)cc4)nc(N4CCOCC4)n3)cc21 [[6-(1-methyl(1H-indazol-6-yl))-2-morpholin-4-ylpyrimidin-4-yl](4-pyrazolylphenyl)amine] | – | < 500
Cc1nn(C)c2cc(-c3cc(Nc4ccc(-c5nnc(C(C)C)[nH]5)cc4)nc(N4CCOCC4)n3)ccc12 [[6-(1,3-dimethyl(1H-indazol-6-yl))-2-morpholin-4-ylpyrimidin-4-yl]{4-[5-(methylethyl)(4H-1,2,4-triazol-3-yl)]phenyl}amine] | < 500 | –

Compound | IC50 (Homo sapiens, Fibroblast) [nM] | IC50 [nM]
CNC(=O)c1ccc(Nc2cc(-c3ccc4cnn(C5CC5)c4c3)nc(N3CCOCC3)n2)cc1 [(4-{[6-(1-cyclopropyl(1H-indazol-6-yl))-2-morpholin-4-ylpyrimidin-4-yl]amino}phenyl)-N-methylcarboxamide] | < 500 | –
Clc1ccc(Nc2cc(-c3ccc4c(cnn4CCN4CCOCC4)c3)nc(N3CCOCC3)n2)cc1 [(4-chlorophenyl){2-morpholin-4-yl-6-[1-(2-morpholin-4-ylethyl)(1H-indazol-5-yl)]pyrimidin-4-yl}amine] | 1000 to 5000 | –
CC(C)NC(=O)c1ccc(Nc2cc(-c3ccc4ncn(C)c4c3)nc(N3CCOCC3)n2)cc1 [(4-{[6-(1-methylbenzimidazol-6-yl)-2-morpholin-4-ylpyrimidin-4-yl]amino}phenyl)-N-(methylethyl)carboxamide] | 1000 to 5000 | –
Cn1nc(CCN2CCOCC2)c2ccc(-c3cc(Nc4ccc(F)cc4)nc(N4CCOCC4)n3)cc21 [(4-fluorophenyl){6-[1-methyl-3-(2-morpholin-4-ylethyl)(1H-indazol-6-yl)]-2-morpholin-4-ylpyrimidin-4-yl}amine] | 1000 to 5000 | –
CN(C)CCCc1nn(C)c2cc(-c3cc(Nc4ccc5ccn(C)c5c4)nc(N4CCOCC4)n3)ccc12 [dimethyl[3-(1-methyl-6-{6-[(1-methylindol-6-yl)amino]-2-morpholin-4-ylpyrimidin-4-yl} (1H-indazol-3-yl))propyl]amine] | < 500 | –
Cc1nc2ccc(-c3cc(Nc4ccc(Cl)cc4)nc(N4CCOCC4)n3)cc2n1CCN1CCCC1 [(4-chlorophenyl){6-[2-methyl-1-(2-pyrrolidinylethyl)benzimidazol-6-yl]-2-morpholin-4-ylpyrimidin-4-yl}amine] | 1000 to 5000 | –
CNC(=O)c1ccc(Nc2cc(-c3ccc4c(C)nn(C)c4c3)nc(N3CCOCC3)n2)cc1 [(4-{[6-(1,3-dimethyl(1H-indazol-6-yl))-2-morpholin-4-ylpyrimidin-4-yl]amino}phenyl)-N-methylcarboxamide] | < 500 | –
Cc1ccc(Nc2cc(-c3ccc4ncn(C)c4c3)nc(N3CCOCC3)n2)cc1 [[6-(1-methylbenzimidazol-6-yl)-2-morpholin-4-ylpyrimidin-4-yl](4-methylphenyl)amine] | 1000 to 5000 | –
Cc1nnc(-c2ccc(Nc3cc(-c4ccc5c(C)nn(C)c5c4)nc(N4CCOCC4)n3)cc2)[nH]1 [[6-(1,3-dimethyl(1H-indazol-6-yl))-2-morpholin-4-ylpyrimidin-4-yl][4-(5-methyl(4H-1,2,4-triazol-3-yl))phenyl]amine] | < 500 | –
Cc1nc2ccc(-c3cc(Nc4ccc(Cl)cc4)nc(N4CCOCC4)n3)cc2n1C1CCC1 [(4-chlorophenyl)[6-(1-cyclobutyl-2-methylbenzimidazol-6-yl)-2-morpholin-4-ylpyrimidin-4-yl]amine] | 1000 to 5000 | –
{6-[1-methyl-3-(2-morpholin-4-ylethyl)(1H-indazol-6-yl)]-2-morpholin-4-ylpyrimidin-4-yl}[4-(3-methylpyrazolyl)phenyl]amine | – | < 500
Cn1ccc2ccc(Nc3cc(-c4ccc5c(CCN6CCOCC6)nn(C)c5c4)nc(N4CCOCC4)n3)cc21 [(1-methylindol-6-yl){6-[1-methyl-3-(2-morpholin-4-ylethyl)(1H-indazol-6-yl)]-2-morpholin-4-ylpyrimidin-4-yl}amine] | < 500 | –
Cc1c(C)n(C)c2cc(Nc3cc(-c4ccc5c(CCN6CCOCC6)nn(C)c5c4)nc(N4CCOCC4)n3)ccc12 [{6-[1-methyl-3-(2-morpholin-4-ylethyl)(1H-indazol-6-yl)]-2-morpholin-4-ylpyrimidin-4-yl}(1,2,3-trimethylindol-6-yl)amine] | 500 to 1000 | –
CNC(=O)c1ccc(Nc2cc(-c3ccc4cn[nH]c4c3)nc(N3CCOCC3)n2)cn1 [{5-[(6-(1H-indazol-6-yl)-2-morpholin-4-ylpyrimidin-4-yl)amino](2-pyridyl)}-N-methylcarboxamide] | 500 to 1000 | –
Cc1nn(C)c2cc(-c3cc(Nc4ccc(-c5ncon5)cc4)nc(N4CCOCC4)n3)ccc12 [[6-(1,3-dimethyl(1H-indazol-6-yl))-2-morpholin-4-ylpyrimidin-4-yl](4-(1,2,4-oxadiazol-3-yl)phenyl)amine] | 500 to 1000 | –
Cn1ncc2ccc(-c3cc(Nc4ccc(S(C)(=O)=O)cc4)nc(N4CCOCC4)n3)cc21 [1-{[6-(1-methyl(1H-indazol-6-yl))-2-morpholin-4-ylpyrimidin-4-yl]amino}-4-(methylsulfonyl)benzene] | 1000 to 5000 | –
Cn1ncc2ccc(-c3cc(Nc4ccc(-c5[nH]ncc5F)cc4)nc(N4CCOCC4)n3)cc21 [[4-(4-fluoropyrazol-5-yl)phenyl][6-(1-methyl(1H-indazol-6-yl))-2-morpholin-4-ylpyrimidin-4-yl]amine] | 1000 to 5000 | –
Cn1cnc2ccc(-c3cc(Nc4ccc(C(=O)NCC5CC5)cc4)nc(N4CCOCC4)n3)cc21 [N-(cyclopropylmethyl)(4-{[6-(1-methylbenzimidazol-6-yl)-2-morpholin-4-ylpyrimidin-4-yl]amino}phenyl)carboxamide] | 500 to 1000 | –
